The target in one data set is T1, hSTING-WT (Homo sapiens, UniProt Q86WV6, H232R).
T1 construct: purchased Cisbio
As to the kind of experiment: HTRF STING competition binding (cGAMP displacement) assay, hSTING-WT. As to conditions: for pIC50: HTRF displacement assay, means from at least three repeated experiments; for binding to hSTING-WT in displacement assay, in words: concentrations up to 100 μM. The method, then: (§1) Mouse STING binding kits, human STING WT binding kits, human AQ STING binding kits, human H232 STING binding kits were purchased from Cisbio. […] QUANTI-Blue solution, QUANTI-Luc, 2′,3′-cGAMP were purchased from Invivogen. […] CellTiter-Glo luminescent cell viability assay kit was obtained from Promega.
(§2) According to the instructions of STING binding kits, the following solutions were successively added to each well in the 384-well plate: 5 μL of the detection compounds or 2′,3′-cGAMP (positive control) with different concentrations or diluent (negative control); 5 μL of human STING 6His-tagged protein (negative control well was added to detection buffer); 10 μL of STING ligand d2 and Anti 6His-Tb3^+ premixed working solution.
(In general: In TR-FRET formats the signal depends on donor and acceptor labels being close together.)

The next data set deals with T2, hSTING-AQ (Homo sapiens, UniProt Q86WV6, G230A/R293Q).
T2 construct: purchased Cisbio
T2 sequence (Q86WV6 whole entry G230A/R293Q): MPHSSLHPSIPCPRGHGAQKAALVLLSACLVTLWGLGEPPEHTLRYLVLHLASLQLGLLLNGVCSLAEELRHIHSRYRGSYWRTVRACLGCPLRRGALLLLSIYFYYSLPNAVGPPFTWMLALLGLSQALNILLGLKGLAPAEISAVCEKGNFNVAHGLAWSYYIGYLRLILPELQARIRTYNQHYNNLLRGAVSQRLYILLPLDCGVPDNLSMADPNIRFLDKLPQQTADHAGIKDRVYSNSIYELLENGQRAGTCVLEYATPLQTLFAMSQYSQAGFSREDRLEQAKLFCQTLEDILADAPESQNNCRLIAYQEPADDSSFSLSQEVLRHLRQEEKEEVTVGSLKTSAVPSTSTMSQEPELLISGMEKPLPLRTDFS
As to the kind of experiment: HTRF STING competition binding (cGAMP displacement) assay, hSTING-AQ. As to conditions: for pIC50: HTRF displacement assay, means from at least three repeated experiments; for binding to hSTING-AQ in displacement assay, in words: concentrations up to 100 μM. Here is the method: as §1, §2

The target in a further data set is T3, hSTING-H232 (Homo sapiens, UniProt Q86WV6).
T3 construct: purchased Cisbio
T3 sequence (Q86WV6 135-379 limits assumed): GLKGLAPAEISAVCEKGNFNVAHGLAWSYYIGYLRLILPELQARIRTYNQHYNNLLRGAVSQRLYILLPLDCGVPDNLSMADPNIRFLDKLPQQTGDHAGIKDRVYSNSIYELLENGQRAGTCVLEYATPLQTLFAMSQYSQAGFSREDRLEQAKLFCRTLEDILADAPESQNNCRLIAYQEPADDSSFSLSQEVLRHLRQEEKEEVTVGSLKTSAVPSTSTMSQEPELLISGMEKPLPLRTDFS
As to the kind of experiment: HTRF STING competition binding (cGAMP displacement) assay, hSTING-H232. As to conditions: for pIC50: HTRF displacement assay, means from at least three repeated experiments; for binding to hSTING-H232 in displacement assay, in words: concentrations up to 100 μM. The method, then: as §1, §2

Data set [1] has as its target T4, mSTING (Mus musculus, UniProt Q3TBT3).
T4 sequence (Q3TBT3 1-378): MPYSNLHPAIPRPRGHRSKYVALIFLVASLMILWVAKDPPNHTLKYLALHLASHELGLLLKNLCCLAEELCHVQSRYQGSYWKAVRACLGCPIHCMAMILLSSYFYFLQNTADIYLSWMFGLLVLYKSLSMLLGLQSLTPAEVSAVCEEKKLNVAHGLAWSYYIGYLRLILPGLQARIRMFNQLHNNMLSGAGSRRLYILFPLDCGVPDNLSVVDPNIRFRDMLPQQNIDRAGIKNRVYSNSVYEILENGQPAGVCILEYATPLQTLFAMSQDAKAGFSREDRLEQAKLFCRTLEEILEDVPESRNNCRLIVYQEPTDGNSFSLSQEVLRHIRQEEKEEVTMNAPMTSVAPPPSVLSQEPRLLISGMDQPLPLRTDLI
As to the kind of experiment: HTRF STING competition binding (cGAMP displacement) assay, mSTING. The arrangement: purchased Cisbio. The note with it: for pIC50: HTRF displacement assay, means from at least three repeated experiments; for binding to mSTING in displacement assay, in words: concentrations up to 100 μM. Here is the method:
as §1, §2

The subject of the next data set is 293T cells. As to the kind of experiment: CellTiter-Glo luminescent cell viability assay, 293T cells. The note with it: 48 h. For orientation: Cellular ATP, detected with luciferase, serves as a proxy for viable cell number.
The subject of a further data set is THP-1 cells. As to the kind of experiment: CellTiter-Glo luminescent cell viability assay, THP-1 cells. As to conditions: 48 h.
The test system of data set [2] is STING-triggered NF-κB pathway. The data set can be described thus: Inhibition of STING dual pathways, THP1-KI-hSTING-R232 cells, NF-κB (SEAP). As to conditions: THP1-hSTING-R232 cells stimulated with 2′,3′-cGAMP, 24 h; 11 20 µM, 27 33 µM, H151 2 µM.
Description: (§3) After the THP-1 reporter cell line stimulation with 2′,3′-cGAMP, we added STING inhibitors with appropriate concentrations for inhibiting the inductions of I IFN and proinflammatory cytokine. […] In addition, to exclude the effect of cytotoxicity of the compounds on the inhibitory activity, we used the CellTiter-Glo kit to assay cellular activity.
In data set [3] the test system is STING-triggered IRF pathway. The data set can be described thus: Inhibition of STING dual pathways, THP1-KI-hSTING-R232 cells, IRF (Lucia luciferase). The note with it: THP1-hSTING-R232 cells stimulated with 2′,3′-cGAMP, 24 h; 11 20 µM, 27 33 µM, H151 2 µM.
Description: as §3
Data set [4] addresses T4, mSTING. As to the kind of experiment: Cellular assay for STING inhibitory activity, 293T mSTING cells stimulated with 2′,3′-cGAMP (SEAP). As to conditions: for inhibitory potency in murine STING reporter cells, initial screen: compound at 100 μM.
A further data set deals with hSTING-R232 (Homo sapiens, UniProt Q86WV6, H232R). The data set can be described thus: Cellular assay for STING inhibitory activity, 293T hSTING-R232 cells stimulated with 2′,3′-cGAMP (SEAP). As to conditions: for inhibitory potency in human STING reporter cells, initial screen: compound at 100 μM.
Sequence of hSTING-R232 (Q86WV6 whole entry H232R): as the sequence (Q86WV6 whole entry G230A/R293Q) above, with A230G, H232R, Q293R counted along it

pIC50: −log10 of the molar value. Values joined by “and” are separate entries in the source; they are usually repeats but may differ in a detail not shown here. Equal values may be shown once. Some results are limits rather than exact numbers.

T1 sequence (Q86WV6 whole entry H232R): as the sequence (Q86WV6 whole entry G230A/R293Q) above, with A230G, H232R, Q293R counted along it

Take `COc1cc2c(=O)c3ccccc3[nH]c2c(C)c1C` [Compound 9, 2-methoxy-3,4-dimethylacridin-9(10H)-one]: at hSTING-WT, the pIC50 (in general, −log10 of the IC50, conventionally taken in molar units) was less than 4.00 and the “binding to hSTING-WT in displacement assay, in words” value (from here on “binding to hSTING-WT”) is “cannot bind to STING”. Also, on hSTING-AQ, the pIC50 was less than 4.00 and the “binding to hSTING-AQ in displacement assay, in words” value (shortened to “binding to hSTING-AQ”) is reported as “cannot bind to STING”. In addition, on hSTING-H232, the pIC50 is less than 4.00 and the “binding to hSTING-H232 in displacement assay, in words” value (“binding to hSTING-H232” below) is “cannot bind to STING”. For the same compound, at mSTING [1], the pIC50 was less than 4.00 and the “binding to mSTING in displacement assay, in words” value (“binding to mSTING” below) is given as “cannot bind to STING”.

Consider `CCOC(=O)Cn1c2ccccc2c(=O)c2cc(OC)c(C)c(C)c21` [Compound 10, Ethyl 2-(2-methoxy-3,4-dimethyl-9-oxoacridin-10 (9H)-yl)acetate], for which, at hSTING-WT, the pIC50 was less than 4.00 and the “binding to hSTING-WT” value is recorded as “cannot bind to STING”. Further, on hSTING-AQ, the pIC50 is less than 4.00 and the “binding to hSTING-AQ” value is “cannot bind to STING”. For the same compound, on hSTING-H232, the pIC50 was less than 4.00 and the “binding to hSTING-H232” value is recorded as “cannot bind to STING”. Moreover, at mSTING [1], the pIC50 is less than 4.00 and the “binding to mSTING” value is “cannot bind to STING”.

Regarding `COc1cc2c(=O)c3ccccc3n(CC(=O)O)c2c(C)c1C` [Compound 11, 2-(2-methoxy-3,4-dimethyl-9-oxoacridin-10(9H)-yl)acetic acid], the negative logarithm of the IC50 (pIC50) at hSTING-WT was > 4.70 and 5.24; at hSTING-AQ, > 4.70 and 4.84; on hSTING-H232, > 4.70 and 4.92; on mSTING [1] it was > 4.70 and 4.72; against mSTING [4], 4.81; against hSTING-R232, 4.70. Further, in the data set with 293T cells (5 to 100 μM), the “cytotoxicity, cell viability 293T cells” value is listed as “no evidence of cytotoxicity”. Further, the “cytotoxicity, cell viability THP-1 cells” value in the data set with THP-1 cells (5 to 100 μM) is given as “no evidence of cytotoxicity”. Also, the “inhibition of STING-triggered NF-κB pathway activation” value in [2] is “significantly inhibited”. Besides, the “inhibition of STING-triggered IRF pathway activation” value in [3] was “significantly inhibited”. Further, the “inhibitory potency in murine STING reporter cells, initial screen” value against mSTING [4] is reported as “excellent inhibition”. The “inhibitory potency in human STING reporter cells, initial screen” value against hSTING-R232 is “excellent inhibition”.

Consider `COc1cc2c(=O)c3c(Cl)ccc4c3n(c2c(C)c1C)C(=O)C4` [Compound 25, 5-chloro-8-methoxy-9,10-dimethyl-6H-pyrrolo [3,2,1-de]acridine-1,6(2H)-dione], for which the pIC50 on hSTING-WT is 4.11; at hSTING-AQ it was 4.32; at hSTING-H232, 4.42; at mSTING [1] it was 4.49.

As to `COc1cc2c(=O)c3cc(Cl)cc4c3n(c2c(C)c1C)C(=O)C4` [Compound 26, 4-chloro-8-methoxy-9,10-dimethyl-6H-pyrrolo[3,2,1-de]acridine-1,6(2H)-dione], the pIC50 at hSTING-WT is less than 4.00; at hSTING-AQ it was 4.19; on hSTING-H232 it was 4.10; on mSTING [1], 4.29.

Take `COc1cc2c(=O)c3c(F)ccc4c3n(c2c(C)c1C)C(=O)C4` [Compound 27, 5-fluoro-8-methoxy-9,10-dimethyl-6H-pyrrolo[3,2,1-de]acridine-1,6(2H)-dione]: on hSTING-WT, the pIC50 was 5.12 and the “binding to hSTING-WT” value is on record as “single-digit micromolar activity”. Besides, on hSTING-AQ, the pIC50 is 5.24 and the “binding to hSTING-AQ” value is “single-digit micromolar activity”. Also, on hSTING-H232, the pIC50 is 5.18 and the “binding to hSTING-H232” value is on record as “single-digit micromolar activity”. Also, on mSTING [1], the pIC50 was 5.41 and the “binding to mSTING” value was “single-digit micromolar activity”. Also, the “inhibition of STING-triggered NF-κB pathway activation” value in data set [2] is recorded as “significantly inhibited”. In data set [3], the “inhibition of STING-triggered IRF pathway activation” value is reported as “significantly inhibited”. At mSTING [4], the pIC50 was 4.51 and the “inhibitory potency in murine STING reporter cells, initial screen” value was “excellent inhibition”. For the same compound, at hSTING-R232, the pIC50 was 4.41 and the “inhibitory potency in human STING reporter cells, initial screen” value is listed as “excellent inhibition”.

With `COc1cc2c(=O)c3cc(F)cc4c3n(c2c(C)c1C)C(=O)C4` [Compound 28, 4-fluoro-8-methoxy-9,10-dimethyl-6H-pyrrolo[3,2,1-de]acridine-1,6(2H)-dione], the pIC50 is 4.06 at hSTING-WT, 4.26 on hSTING-AQ, 4.20 at hSTING-H232 and 4.21 on mSTING [1].

In the case of `COc1cc2c3c(c1)c(=O)c1cc(OC)c(C)c(C)c1n3C(=O)C2` [Compound 29, 4,8-dimethoxy-9,10-dimethyl-6H-pyrrolo[3,2,1-de]acridine-1,6(2H)-dione], the pIC50 was less than 4.00 on hSTING-WT, 4.15 at hSTING-AQ, 4.08 on hSTING-H232 and less than 4.00 on mSTING [1].

As to `COc1cc2c(=O)c3cccc(C(=O)O)c3[nH]c2c(C)c1C` [Compound 33, 7-methoxy-5,6-dimethyl-9-oxo-9,10-dihydroacridine-4-carboxylic acid], on hSTING-WT, the pIC50 is less than 4.00 and the “binding to hSTING-WT” value is “inactive”. At hSTING-AQ, the pIC50 is less than 4.00 and the “binding to hSTING-AQ” value was “inactive”. Also, at hSTING-H232, the pIC50 was less than 4.00 and the “binding to hSTING-H232” value is “inactive”. Moreover, at mSTING [1], the pIC50 was less than 4.00 and the “binding to mSTING” value was “inactive”.

Turning to `COc1cc(C(=O)O)c2[nH]c3c(C)c(C)c(OC)cc3c(=O)c2c1` [Compound 34, 2,7-dimethoxy-5,6-dimethyl-9-oxo-9,10-dihydroacridine-4-carboxylic acid], at hSTING-WT, the pIC50 is less than 4.00 and the “binding to hSTING-WT” value is “inactive”. Also, on hSTING-AQ, the negative logarithm of the IC50 (pIC50) is less than 4.00 and the “binding to hSTING-AQ” value was “inactive”. In addition, at hSTING-H232, the pIC50 was less than 4.00 and the “binding to hSTING-H232” value is “inactive”. Further, at mSTING [1], the pIC50 was less than 4.00 and the “binding to mSTING” value was “inactive”.

For `COc1cc2c(=O)c3c(F)ccc(CC(=O)O)c3[nH]c2c(C)c1C` [Compound 35], the pIC50 at hSTING-WT, on hSTING-AQ, at hSTING-H232 and on mSTING [1] was less than 4.00 throughout.

In the case of `COc1cc2c(=O)c3c(Cl)ccc(CC(=O)O)c3[nH]c2c(C)c1C` [Compound 36], the pIC50 at hSTING-WT, on hSTING-AQ, on hSTING-H232 and at mSTING [1] was less than 4.00 each time.

As for `COc1cc2c(=O)c3cc(F)cc(CC(=O)O)c3[nH]c2c(C)c1C` [Compound 37], the pIC50 on hSTING-WT, on hSTING-AQ, on hSTING-H232 and on mSTING [1] was less than 4.00 each time.

Turning to `COc1cc2c(=O)c3cc(Cl)cc(CC(=O)O)c3[nH]c2c(C)c1C` [Compound 38], the pIC50 on hSTING-WT, at hSTING-AQ, on hSTING-H232 and on mSTING [1] was less than 4.00 in each case.

Consider `CCc1ccc(NC(=O)Nc2c[nH]c3ccccc23)cc1` [Compound H151, reference compound], for which the “cytotoxicity, cell viability 293T cells” value in the data set on 293T cells (at 10 μM) is reported as “significant cytotoxicity”. Moreover, the “cytotoxicity, cell viability THP-1 cells” value with THP-1 cells (at 10 μM) was “significant cytotoxicity”.

For the origin of these results see article PMC10095708, “Discovery of Novel STING Inhibitors Based on the Structure of the Mouse STING Agonist DMXAA” (Molecules, 2023).
